Measured values: ChEMBL document CHEMBL5465560, “Selectivity Literature for EUbOPEN Chemogenomic Library” (2024)

Legend:
[1] = biological target: Cyclin-dependent kinase 2 (Homo sapiens, UniProt P24941); assay: Selectivity interaction (KinomeScan (DiscoverX)) EUB0000666a CDK2; conditions: at 10 µM
[2] = biological target: Serine/threonine-protein kinase SIK2 (Homo sapiens) (UniProt Q9H0K1); assay: Selectivity interaction (KinomeScan (DiscoverX)) EUB0000607a SIK2; conditions: at 10 µM
[3] = biological target: Phosphatidylinositol 3-kinase catalytic subunit type 3 (Homo sapiens, UniProt Q8NEB9); assay: Selectivity interaction (ActivX KiNativ screen (kinase selectivity in THP-1 cell lysates)) EUB0000639a PIK3C3; type: subcellular; conditions: lysate, at 0.2 µM
[4] = biological target: Cyclin-C/Cyclin-dependent kinase 19 (Homo sapiens) (UniProt Q9BWU1+P24863); assay: Selectivity interaction (ProQinase) EUB0000171b CDK19; type: protein-complex assay
[5] = biological target: Mitogen-activated protein kinase 8 (Homo sapiens, UniProt P45983); assay: Selectivity interaction (Millipore kinase profiler) EUB0000124b MAPK8; conditions: at 10 µM
[6] = biological target: T1, Mitogen-activated protein kinase kinase kinase kinase 2 (Homo sapiens) (UniProt Q12851); assay: Selectivity interaction (KinomeScan (DiscoverX)) EUB0000655a MAP4K2; conditions: at 10 µM
T1 sequence (whole entry): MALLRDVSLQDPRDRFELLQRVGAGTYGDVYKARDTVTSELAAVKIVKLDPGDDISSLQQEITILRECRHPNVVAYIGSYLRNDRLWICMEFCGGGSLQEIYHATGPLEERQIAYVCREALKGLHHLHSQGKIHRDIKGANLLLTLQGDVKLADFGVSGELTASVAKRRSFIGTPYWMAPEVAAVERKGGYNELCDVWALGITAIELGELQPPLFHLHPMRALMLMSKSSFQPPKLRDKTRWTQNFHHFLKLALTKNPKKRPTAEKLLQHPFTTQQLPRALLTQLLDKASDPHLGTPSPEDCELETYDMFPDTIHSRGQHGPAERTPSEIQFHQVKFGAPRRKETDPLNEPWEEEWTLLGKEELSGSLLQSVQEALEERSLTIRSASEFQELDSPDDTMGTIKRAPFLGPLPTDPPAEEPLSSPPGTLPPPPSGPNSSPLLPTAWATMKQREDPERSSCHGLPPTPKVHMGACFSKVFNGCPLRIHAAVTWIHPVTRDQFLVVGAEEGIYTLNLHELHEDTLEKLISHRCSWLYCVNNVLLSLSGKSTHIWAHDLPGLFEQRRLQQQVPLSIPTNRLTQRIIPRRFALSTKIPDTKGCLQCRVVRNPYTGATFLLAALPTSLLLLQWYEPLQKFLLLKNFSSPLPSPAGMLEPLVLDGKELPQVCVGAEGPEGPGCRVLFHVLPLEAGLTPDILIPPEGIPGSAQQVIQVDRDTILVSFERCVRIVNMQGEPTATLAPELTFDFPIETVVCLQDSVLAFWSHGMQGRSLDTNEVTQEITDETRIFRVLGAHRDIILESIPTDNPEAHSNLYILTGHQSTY

[7] = biological target: T2, Beta-adrenergic receptor kinase 1 (Homo sapiens) (UniProt P25098); assay: Selectivity interaction (KinomeScan (DiscoverX)) EUB0001079a ADRBK1; conditions: at 1 µM
T2 sequence (whole entry): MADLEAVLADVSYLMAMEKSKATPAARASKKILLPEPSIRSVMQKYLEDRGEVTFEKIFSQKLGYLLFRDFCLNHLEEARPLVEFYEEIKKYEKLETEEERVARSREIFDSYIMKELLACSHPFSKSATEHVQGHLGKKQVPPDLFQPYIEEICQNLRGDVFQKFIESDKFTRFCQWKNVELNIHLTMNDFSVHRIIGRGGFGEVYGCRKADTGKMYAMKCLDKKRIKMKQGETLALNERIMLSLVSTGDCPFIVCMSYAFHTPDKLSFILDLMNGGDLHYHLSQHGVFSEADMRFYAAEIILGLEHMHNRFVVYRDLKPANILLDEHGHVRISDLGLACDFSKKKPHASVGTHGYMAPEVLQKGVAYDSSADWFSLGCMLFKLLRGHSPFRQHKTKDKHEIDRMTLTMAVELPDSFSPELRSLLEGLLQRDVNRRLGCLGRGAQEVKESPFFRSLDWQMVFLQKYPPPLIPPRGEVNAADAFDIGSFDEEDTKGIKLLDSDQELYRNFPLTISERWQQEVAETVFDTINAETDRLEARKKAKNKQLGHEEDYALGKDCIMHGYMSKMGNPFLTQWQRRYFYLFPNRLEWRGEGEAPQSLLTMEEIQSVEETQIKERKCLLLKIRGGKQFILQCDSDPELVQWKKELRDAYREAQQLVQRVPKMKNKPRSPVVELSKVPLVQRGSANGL

[8] = biological target: Protein-tyrosine kinase 2-beta (Homo sapiens) (UniProt Q14289); assay: Selectivity interaction (KinomeScan (DiscoverX)) EUB0001079a PTK2B; conditions: at 1 µM
[9] = biological target: Transient receptor potential cation channel subfamily M member 6 (Homo sapiens) (UniProt Q9BX84); assay: Selectivity interaction (KinomeScan (DiscoverX)) EUB0001079a TRPM6; conditions: at 1 µM
[10] = biological target: Cyclin-dependent kinase 17 (Homo sapiens) (UniProt Q00537); assay: Selectivity interaction (Kinase panel (KiNativ target engagement assay in Jurkat cells)) EUB0001635a CDK17; type: cell-based; conditions: Selectivity number of off-targets 0.0, Selectivity number of targets 233.0, Source Knowledge https://www.sciencedirect.com/science/article/pii/S2451945619300674?via%3Dihub, at 1 µM
[11] = biological target: Receptor-type tyrosine-protein kinase FLT3 (Homo sapiens) (UniProt P36888); assay: Selectivity interaction (KinomeScan (DiscoverX)) EUB0000229b FLT3; conditions: at 10 µM
[12] = biological target: Vascular endothelial growth factor receptor 1 (Homo sapiens) (UniProt P17948); assay: Selectivity interaction (KinomeScan (DiscoverX)) EUB0000618a FLT1; conditions: at 10 µM

Sequence of Transient receptor potential cation channel subfamily M member 6 (Homo sapiens) (Q9BX84 whole entry): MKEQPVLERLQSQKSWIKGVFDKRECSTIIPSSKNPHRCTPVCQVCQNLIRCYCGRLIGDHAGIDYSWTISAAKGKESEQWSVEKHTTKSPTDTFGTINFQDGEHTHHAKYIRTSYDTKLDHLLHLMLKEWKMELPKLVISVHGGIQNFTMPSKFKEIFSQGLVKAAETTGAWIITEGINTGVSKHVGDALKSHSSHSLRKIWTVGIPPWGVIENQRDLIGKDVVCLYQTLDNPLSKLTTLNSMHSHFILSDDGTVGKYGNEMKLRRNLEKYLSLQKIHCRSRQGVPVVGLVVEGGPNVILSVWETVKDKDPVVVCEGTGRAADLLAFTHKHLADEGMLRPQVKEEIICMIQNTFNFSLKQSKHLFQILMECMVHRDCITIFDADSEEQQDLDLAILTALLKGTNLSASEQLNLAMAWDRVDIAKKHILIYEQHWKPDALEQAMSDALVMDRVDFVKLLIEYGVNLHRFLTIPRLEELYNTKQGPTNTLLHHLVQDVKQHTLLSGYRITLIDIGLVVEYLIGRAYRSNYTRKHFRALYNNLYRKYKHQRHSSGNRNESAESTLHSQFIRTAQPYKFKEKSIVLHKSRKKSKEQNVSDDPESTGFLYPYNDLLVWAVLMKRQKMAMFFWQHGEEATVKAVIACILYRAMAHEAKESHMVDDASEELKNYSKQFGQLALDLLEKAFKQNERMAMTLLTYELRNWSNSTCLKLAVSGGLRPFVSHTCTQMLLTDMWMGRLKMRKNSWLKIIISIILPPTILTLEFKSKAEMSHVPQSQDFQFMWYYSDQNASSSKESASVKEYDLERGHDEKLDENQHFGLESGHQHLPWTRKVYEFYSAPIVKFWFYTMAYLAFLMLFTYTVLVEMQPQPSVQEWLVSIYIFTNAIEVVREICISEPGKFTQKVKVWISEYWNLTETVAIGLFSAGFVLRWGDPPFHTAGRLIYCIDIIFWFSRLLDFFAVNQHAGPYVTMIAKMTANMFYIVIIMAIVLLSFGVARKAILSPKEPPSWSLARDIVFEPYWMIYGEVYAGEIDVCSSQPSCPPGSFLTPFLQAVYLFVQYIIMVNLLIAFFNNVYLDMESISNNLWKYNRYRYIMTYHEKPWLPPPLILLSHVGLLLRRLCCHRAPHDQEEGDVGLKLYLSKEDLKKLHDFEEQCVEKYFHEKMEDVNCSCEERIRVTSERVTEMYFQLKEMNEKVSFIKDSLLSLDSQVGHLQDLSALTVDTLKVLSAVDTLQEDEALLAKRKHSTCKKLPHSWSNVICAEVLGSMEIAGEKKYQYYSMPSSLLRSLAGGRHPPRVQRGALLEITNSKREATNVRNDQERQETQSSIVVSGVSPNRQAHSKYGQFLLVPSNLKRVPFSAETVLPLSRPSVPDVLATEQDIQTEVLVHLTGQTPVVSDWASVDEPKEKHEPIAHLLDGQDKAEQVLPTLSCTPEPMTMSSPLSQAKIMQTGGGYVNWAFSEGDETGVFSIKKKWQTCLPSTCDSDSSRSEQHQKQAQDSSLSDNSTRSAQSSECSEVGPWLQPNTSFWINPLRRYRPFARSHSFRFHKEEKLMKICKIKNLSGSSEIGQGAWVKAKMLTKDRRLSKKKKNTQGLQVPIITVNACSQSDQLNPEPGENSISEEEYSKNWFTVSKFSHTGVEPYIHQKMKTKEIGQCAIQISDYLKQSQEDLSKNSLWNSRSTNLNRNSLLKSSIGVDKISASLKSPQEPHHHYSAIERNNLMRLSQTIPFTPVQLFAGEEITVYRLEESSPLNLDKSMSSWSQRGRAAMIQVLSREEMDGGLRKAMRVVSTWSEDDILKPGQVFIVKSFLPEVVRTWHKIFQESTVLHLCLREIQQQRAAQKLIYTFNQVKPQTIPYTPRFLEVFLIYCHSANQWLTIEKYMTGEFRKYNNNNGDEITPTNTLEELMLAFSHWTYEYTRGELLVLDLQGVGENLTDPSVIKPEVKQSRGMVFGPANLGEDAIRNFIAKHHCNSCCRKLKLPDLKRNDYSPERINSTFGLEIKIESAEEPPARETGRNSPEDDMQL
Sequence of Protein-tyrosine kinase 2-beta (Homo sapiens) (Q14289 whole entry, looked up): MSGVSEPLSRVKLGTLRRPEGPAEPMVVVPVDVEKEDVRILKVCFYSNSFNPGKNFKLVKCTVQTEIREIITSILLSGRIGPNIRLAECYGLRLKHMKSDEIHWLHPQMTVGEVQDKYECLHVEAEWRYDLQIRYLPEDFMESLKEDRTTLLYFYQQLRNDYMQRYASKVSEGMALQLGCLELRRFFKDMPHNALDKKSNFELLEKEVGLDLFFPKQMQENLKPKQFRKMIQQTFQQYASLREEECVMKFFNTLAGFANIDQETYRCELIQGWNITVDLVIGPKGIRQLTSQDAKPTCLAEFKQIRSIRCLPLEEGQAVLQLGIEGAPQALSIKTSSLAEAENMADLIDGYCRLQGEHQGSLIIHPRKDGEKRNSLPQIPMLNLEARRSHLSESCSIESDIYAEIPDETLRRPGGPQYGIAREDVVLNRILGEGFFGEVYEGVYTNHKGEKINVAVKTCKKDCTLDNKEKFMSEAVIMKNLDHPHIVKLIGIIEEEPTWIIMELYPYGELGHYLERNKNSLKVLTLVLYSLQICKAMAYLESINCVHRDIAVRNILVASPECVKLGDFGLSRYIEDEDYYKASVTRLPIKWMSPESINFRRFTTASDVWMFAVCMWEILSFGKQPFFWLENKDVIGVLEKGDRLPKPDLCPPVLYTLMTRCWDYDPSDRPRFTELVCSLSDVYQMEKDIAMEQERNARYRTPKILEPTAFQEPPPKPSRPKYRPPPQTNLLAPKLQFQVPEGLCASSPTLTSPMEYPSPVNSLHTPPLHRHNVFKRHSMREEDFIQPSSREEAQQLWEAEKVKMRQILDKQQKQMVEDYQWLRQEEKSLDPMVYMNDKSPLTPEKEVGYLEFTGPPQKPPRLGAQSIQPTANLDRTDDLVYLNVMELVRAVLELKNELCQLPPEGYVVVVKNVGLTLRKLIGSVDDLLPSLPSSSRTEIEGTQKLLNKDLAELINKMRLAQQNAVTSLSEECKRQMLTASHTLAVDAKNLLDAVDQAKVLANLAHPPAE
Sequence of Serine/threonine-protein kinase SIK2 (Homo sapiens) (Q9H0K1 whole entry, looked up): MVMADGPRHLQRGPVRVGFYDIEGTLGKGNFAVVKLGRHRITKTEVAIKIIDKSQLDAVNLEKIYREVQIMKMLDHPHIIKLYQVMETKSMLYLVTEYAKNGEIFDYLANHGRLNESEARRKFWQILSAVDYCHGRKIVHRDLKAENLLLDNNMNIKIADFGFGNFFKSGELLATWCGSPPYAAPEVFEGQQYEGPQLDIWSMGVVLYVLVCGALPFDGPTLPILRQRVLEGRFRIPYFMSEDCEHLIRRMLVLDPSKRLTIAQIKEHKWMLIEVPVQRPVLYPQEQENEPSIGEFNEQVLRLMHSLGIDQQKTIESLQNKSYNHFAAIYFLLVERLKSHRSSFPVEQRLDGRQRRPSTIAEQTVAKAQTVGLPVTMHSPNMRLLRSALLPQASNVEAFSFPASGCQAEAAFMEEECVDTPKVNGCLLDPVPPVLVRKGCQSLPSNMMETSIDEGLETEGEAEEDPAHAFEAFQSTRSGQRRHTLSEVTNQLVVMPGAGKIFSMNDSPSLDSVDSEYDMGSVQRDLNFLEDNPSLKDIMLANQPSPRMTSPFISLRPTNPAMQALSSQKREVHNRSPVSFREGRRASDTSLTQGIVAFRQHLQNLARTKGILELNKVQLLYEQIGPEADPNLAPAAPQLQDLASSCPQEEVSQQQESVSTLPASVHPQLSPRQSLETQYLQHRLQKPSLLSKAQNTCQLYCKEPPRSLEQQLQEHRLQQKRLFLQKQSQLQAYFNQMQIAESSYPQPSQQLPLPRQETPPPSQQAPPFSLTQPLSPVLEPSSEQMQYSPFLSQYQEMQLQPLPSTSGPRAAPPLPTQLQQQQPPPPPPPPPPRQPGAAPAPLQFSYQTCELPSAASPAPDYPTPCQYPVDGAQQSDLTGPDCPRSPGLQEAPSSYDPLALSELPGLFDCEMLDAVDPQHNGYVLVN
Sequence of Phosphatidylinositol 3-kinase catalytic subunit type 3 (Q8NEB9 whole entry): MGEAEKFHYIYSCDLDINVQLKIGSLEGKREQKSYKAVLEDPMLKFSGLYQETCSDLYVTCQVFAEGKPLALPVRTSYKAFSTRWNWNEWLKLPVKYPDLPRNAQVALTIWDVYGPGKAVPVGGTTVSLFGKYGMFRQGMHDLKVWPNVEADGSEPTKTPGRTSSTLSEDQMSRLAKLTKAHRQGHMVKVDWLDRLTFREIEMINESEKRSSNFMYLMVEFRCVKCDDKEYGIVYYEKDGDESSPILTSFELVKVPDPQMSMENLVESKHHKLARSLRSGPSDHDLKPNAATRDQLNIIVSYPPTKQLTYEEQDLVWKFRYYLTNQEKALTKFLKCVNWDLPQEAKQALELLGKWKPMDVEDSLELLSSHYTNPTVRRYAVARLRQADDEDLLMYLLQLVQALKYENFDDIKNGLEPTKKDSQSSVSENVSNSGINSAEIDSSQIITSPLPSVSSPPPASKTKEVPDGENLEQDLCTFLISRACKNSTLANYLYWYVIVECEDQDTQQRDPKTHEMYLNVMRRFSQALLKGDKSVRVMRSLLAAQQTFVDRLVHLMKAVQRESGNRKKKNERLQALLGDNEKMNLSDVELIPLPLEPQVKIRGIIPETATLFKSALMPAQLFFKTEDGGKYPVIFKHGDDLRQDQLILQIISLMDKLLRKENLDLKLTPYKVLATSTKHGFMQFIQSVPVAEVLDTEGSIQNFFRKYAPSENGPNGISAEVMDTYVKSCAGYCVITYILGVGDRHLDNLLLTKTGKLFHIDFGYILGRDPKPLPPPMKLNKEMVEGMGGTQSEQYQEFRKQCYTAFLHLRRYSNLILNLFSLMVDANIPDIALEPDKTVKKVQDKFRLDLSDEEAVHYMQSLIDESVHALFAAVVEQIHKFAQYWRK

O=C(NOC[C@H](O)CO)c1ccc(F)c(F)c1Nc1ccc(I)cc1F
% of control [1]: 91%

CNC(=O)Nc1ccc(-c2nc(N3CC4CCC(C3)O4)c3cnn(C4CCC5(CC4)OCCO5)c3n2)cc1
% of control [2]: 97%

CC[C@@H]1[C@H](F)C(=O)N[C@@H]1COc1nccc2cc(C(N)=O)c(OC)cc12 [ZIMLOVISERTIB]
% of inhibition [3]: -20.4%

C=CC(=O)Nc1cccc(C(=O)Nc2ccc(Nc3cc(-c4[nH]c(SC)nc4C)ccn3)cc2)c1
% of control ([4]; at 1 µM): 72%
% of control ([4]; at 5 µM): 65%

CC(=O)Nc1cccc(-n2c(=O)n(C3CC3)c(=O)c3c(Nc4ccc(I)cc4F)n(C)c(=O)c(C)c32)c1
% of control [5]: 104%

CN(C)CCOc1ccc(-c2nc(-c3ccncc3)c(-c3ccc4c(c3)CC/C4=N\O)[nH]2)cc1
% of control [6]: 74%

Nc1cnc(N2CCc3cc(S(=O)(=O)Nc4c(F)cc(Cl)cc4F)cc(N4CCCC4=O)c32)nc1 [TP-020n]
% of control [7]: 100%
% of control [8]: 100%
% of control [9]: 93%

C=CC(=O)Nc1ccc(C(=O)Nc2[nH]nc3c2CN(C(=O)N[C@H](CN(C)C)c2ccccc2)C3(C)C)cc1
% of engagement [10]: 9.3%

COc1cc(N(C)c2ccnc3ccc(C(F)(F)F)cc23)cc(OC)c1OC
% binding [11]: 78%

O[C@H]1CC[C@H](Nc2ncc3nc(Nc4c(F)cc(F)cc4F)n([C@H]4CCOC4)c3n2)CC1
% of control [12]: 86%
